Bounds are passed on as bounds.

The first test deals with ML1 Receptor. The test can be described thus: Melatonergic binding at the ML1 receptor in rabbit tissue (2-[125I]-iodomelatonin displacement, parietal cortex homogenate). The following applies: 2-[125I]-iodomelatonin 44pM, 37°C for 1 hour, read-out: Binding Affinity IC50. The method, then: Example 46: Measurement of Melatonergic Binding at the ML1 Receptor in Rabbit Tissue
• 1. Reagents • (a) 50mM Tris buffer containing 12.5 mM MgCl2, and 2mM EDTA (pH 7.4 at 37 °C). • (b) Wash buffer: 20mM Tris base containing 2mM MgCl2 (pH 7.4 at room temperature). • (c) 6-Chloromelatonin (10-^5M final concentration). • (d) 2-[^125I]-iodomelatoin, 44pM final concentration Source: NEN • 2. Tissue preparation. Male New Zealand white rabbits (Hazelton Research) are decapitated, the brains are rapidly removed and chilled. The parietal cortex is crudely dissected and frozen on dry ice with tissue stored at - 80 °C until assayed. Tissue is weighed and thawed in 20 mls ice cold Tris buffer (a) and homogenized by treatment with a polytron for 10 seconds at setting 17. Ice cold Tris (a) is added to a volume of 40 mls. The homogenate is centrifuged. The resulting supernatant is decanted and discarded. The pellet is rehomogenized in an additional 20 mls of Tris, diluted and centrifuged. The supernatant is decanted and discarded. The resulting pellet is homogenized in 20 volumes of Tris per gram of original tissue (a 1:20 homogenate), chilled, and held on ice until assayed. • 3. Incubation: 37 °C for 1 hour. Reaction is terminated by filtration. • 4. […] References: Stankov, B., Cozzi, B., Lucini, V., Fumagalli, P., Scaglione, F. and F. Fraschini. Characterization and mapping of melatonin receptors in the brain of three mammalian species: Rabbit, horse, and sheep. Neuroendocrinology 53: 214-221, 1991.
The IC50 is the concentration needed to halve the response being measured. As for `COCC(=O)NCCC1CCCc2ccc(OC)cc21` (single isomer, unassigned; (+)) [Example 39, (+)-N-[2-(1,2,3,4-tetrahydro-7-methoxynaphthalen-1-yl)ethyl] methoxyacetamide], the IC50 is under 100 nM.
Same read-out and setting: under `CCCC(=O)NCCC1CCc2ccc(OC)cc21` (single isomer, unassigned; (-)) [Example 36] stands under 100 nM; under `COCC(=O)NCCC1CCCc2ccc(OC)cc21` (single isomer, unassigned; (-)) [Example 38, (-)-N-[2-(1,2,3,4-tetrahydro-7-methoxynaphthalen-1-yl)ethyl] methoxyacetamide], under 100 nM; under `CCCC(=O)NCCC1CCCc2ccc(OC)cc21` (centres unmarked) [Example 1, N-[2-(7-Methoxy-1,2,3,4-tetrahydro-1-naphthalenyl)ethyl]butanamide], under 100 nM.
Still for that read-out and setting: under `COc1ccc2c(c1)C(CCNC(=O)C1CC1)CCC2` (centres unmarked) [Example 3, N-[2-(7-Methoxy-1,2,3,4-tetrahydro-1-naphthalenyl)ethyl]cyclopropane carboxamide] stands under 100 nM.
For `COc1ccc2c(c1)C(CCNC(C)=O)CCC2` (centres unmarked) [Example 4, N-[2-(7-Methoxy-1,2,3,4-tetrahydro-1-naphthalenyl)ethyl]acetamide], the 50% inhibitory concentration (IC50) was under 100 nM.
Regarding `COCC(=O)NCCC1CCCc2ccc(OC)cc21` (centres unmarked) [Example 16, N-[2-(7-Methoxy-1,2,3,4-tetrahydro-1-naphthalenyl)ethyl]-2-methoxyacetamide], the half-maximal inhibitory concentration (IC50) is under 100 nM.
Take `CCCC(=O)NCCC1CCc2ccc(OC)cc21` (centres unmarked) [Example 22, N-[2-(2,3-Dihydro-6-methoxy-1H-inden-1-yl)-ethyl]butanamide]: the IC50 was under 100 nM.
On the same count and under the same terms, under `COc1ccc2c(c1)C(CCNC(=O)C1CC1)CC2` (centres unmarked) [Example 24, N-[2-(2,3-Dihydro-6-methoxy-1H-inden-1-yl)-ethyl]cyclopropane carboxamide] stands under 100 nM; under `COc1ccc2c(c1)C(CCNC(C)=O)CC2` (centres unmarked) [Example 25, N-[2-(2,3-Dihydro-6-methoxy-1H-inden-1-yl)-ethyl]acetamide], under 100 nM.
As to `CCCC(=O)NCCC1CCc2ccc(F)cc21` (centres unmarked) [Example 31, N-[2-(6-Fluoro-2,3-dihydro-1H-inden-1-yl)ethyl]butanamide], the IC50 is under 100 nM.
Still for that read-out and setting: with `COc1ccc2c(c1)C(CCNC(C)=O)CC2(C)C` (centres unmarked) [Example 32, N-[2-(2,3-Dihydro-6-methoxy-3,3-dimethyl-1H-inden-1-yl)ethyl]acetamide] the figure was 100 to 500 nM; with `CCCC(=O)NCCC1CC(C)(C)c2ccc(OC)cc21` (centres unmarked) [Example 33, N-[2-(2,3-Dihydro-6-methoxy-3,3-dimethyl-1H-inden-1-yl)ethyl]butanamide], 100 to 500 nM; with `CCCC(=O)NCCC1CCc2ccc(C(=O)OC)cc21` (centres unmarked) [Example 42, N-[2-(2,3-Dihydro-6-methoxycarbonyl-1H-inden-1-yl)ethyl]butanamide], under 100 nM.

For the next test, the target named is T1, Human Melatonin Receptor ML1A (Homo sapiens, UniProt P48039).
T1 construct: expressed in transfected cells; host or cells: COS-1 cells, pcDNAI vector, DEAE-dextran transfection
T1 sequence (P48039 whole entry): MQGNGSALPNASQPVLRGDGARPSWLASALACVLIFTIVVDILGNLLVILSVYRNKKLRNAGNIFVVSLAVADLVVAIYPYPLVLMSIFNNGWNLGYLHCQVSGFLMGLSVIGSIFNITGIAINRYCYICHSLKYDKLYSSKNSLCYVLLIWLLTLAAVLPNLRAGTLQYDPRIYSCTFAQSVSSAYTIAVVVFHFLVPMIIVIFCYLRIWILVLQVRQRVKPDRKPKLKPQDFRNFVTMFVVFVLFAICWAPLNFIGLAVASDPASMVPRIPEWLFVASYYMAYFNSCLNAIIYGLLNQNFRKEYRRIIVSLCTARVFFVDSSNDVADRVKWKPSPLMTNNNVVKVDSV
The test can be described thus: Melatonergic binding at the human melatonin receptor ML1A (2-[125I]-iodomelatonin displacement, membranes of transfected COS-1 cells). The following applies: human ML1A in COS-1 cell membranes, 2-[125I]-iodomelatonin 100 pM, 37°C for 1 hour; read-out: Binding Affinity IC50. On the procedure: Example 47: Measurement of Melatonergic Binding at the Human Melatonin Receptor ML1A
• 1. Reagents: • (a) 50mM Tris buffer containing 12.5 mM MgCl2, and 2mM EDTA, pH 7.4 at 37 °C with concentrated HCl. • (b) Wash buffer: 20mM Tris base containing 2mM MgCl2. pH 7.4 at room temperature. • (c) 10^-4M 6-Chloromelatonin (10-^5M final concentration). • (d) 2-[^125I]-iodomelatonin, 100 pM final concentration Source: NEN • 2. Membrane preparation: The cDNA (human ML1A) in pcDNAI was introduced into COS-1 cells by the DEAE-dextran method. Three days after transfection, the media was removed, the plates washed with phosphate buffered saline, the cells removed using Hank's balanced salt solution and pelleted. For preparing membrane homogenates, pellets are thawed on ice, and resuspended in TME buffer, 50 mM Tris base, 12.5 mM MgCl2, 1 mM EDTA (pH7.4 at 37°C with concentrated HCL), supplemented with 10 µg/ml aprotinin and leupeptin, and 100 µM phenylmethlysulfonylfluoride. The cells were then homogenized using a dounce homogenizer, and centrifuged. The resulting pellet was resuspended with a dounce homogenizer in TME and frozen. On the day of assay, the small aliquot was thawed on ice and resuspended in TME buffer. • 3. Incubation: 37 °C for 1 hour. Reaction is terminated by filtration. • 4. […] Reference: Reppert, S. M., Weaver, D. R., and Ebisawa, R. (1994), Neuron, 13, 1177-1185.
With `CCCC(=O)NCCC1CCc2ccc(OC)cc21` (single isomer, unassigned; (+)) [Example 37], the half-maximal inhibitory concentration (IC50) is 100 to 500 nM.
Same read-out and setting: with `COCC(=O)NCCC1CCCc2ccc(OC)cc21` (single isomer, unassigned; (+)) [Example 39, (+)-N-[2-(1,2,3,4-tetrahydro-7-methoxynaphthalen-1-yl)ethyl] methoxyacetamide] the figure was at least 500 nM.
`CCCC(=O)NCCC1CCc2ccc(OC)cc21` (single isomer, unassigned; (-)) [Example 36]: the half-inhibitory concentration (IC50) was under 100 nM.
Consider `COCC(=O)NCCC1CCCc2ccc(OC)cc21` (single isomer, unassigned; (-)) [Example 38, (-)-N-[2-(1,2,3,4-tetrahydro-7-methoxynaphthalen-1-yl)ethyl] methoxyacetamide], for which the IC50 is under 100 nM.
The same measure, in the same setting: with `CCCCCCCCCCCCOc1ccc2c(c1)C(CCNC(=O)CCC)CC2` (centres unmarked) [Example 43, N-[2-(2,3-Dihydro-6-dodecyloxy-1H-inden-1-yl)ethyl]butanamide] the figure was under 100 nM; with `CCCC(=O)NCCC1CCc2ccc(OC(F)F)cc21` (centres unmarked) [Example 45, N-[2-(6-Difluoromethoxy-2,3-dihydro-1H-inden-1-yl)ethyl]butanamide], under 100 nM.

The values are drawn from patent publication EP0728738A1, “Tetralinyl- and indanyl-ethylamides having melatonergic activity” (BRISTOL-MYERS SQUIBB COMPANY, priority 1995, dated 1996).
